The values that follow come from patent US20120039822A1, “DESENSITIZING DENTIFRICE” (priority 2009, published 2012).

A short description of the data set: Solubility of triclosan in aqueous solutions, filtration methodology (filtrate analyzed for triclosan). The format is physicochemical. How it is done: In the first set of experiments, the solubility of triclosan in the presence/ absence of KCl was measured using a filtration methodology in which the filtrate was analyzed for triclosan.
In the following experiments, triclosan solubility was measured with increasing concentrations of hydroxypropyl-beta-cyclodextrin (no SLS, no KCl).
In the next experiments, triclosan solubility was measured in the presence of hydroxypropyl-beta-cyclodextrin along with SLS and KCl.

Turning to `Oc1cc(Cl)ccc1Oc1ccc(Cl)cc1Cl` [Triclosan, 2,4,4′-trichloro-2′-hydroxy-diphenyl ether], the Appearance result reads like this: (0% SLS - 0% (control)) “Suspension and no precipitate”; (1.5% SLS - 0% KCl) “Suspension and no precipitate”; (1.5% SLS - 3.75% KCl) “Turbid and thick precipitate”. Also, the “Triclosan solubility, %” value runs as follows: (Table 3, 0% SLS - 0% (control)) 0.012%; (Table 3, 1.5% SLS - 0% KCl) 0.330%; (Table 3, 1.5% SLS - 0% KCl, listed as triclosan) “increased the solubility”; (Table 3, 1.5% SLS - 3.75% KCl) 0.110%; (Table 3, 1.5% SLS - 3.75% KCl, listed as triclosan) “decreased solubility”; (Table 4, 0% HPβCD in water (no SLS, no KCl)) 0.012%. Also, the “Triclosan solubility, %” value reads like this: (Table 4, 10% HPβCD in water (no SLS, no KCl)) 0.510%; (Table 4, 15% HPβCD in water (no SLS, no KCl)) 0.680%; (Table 4, 20% HPβCD in water (no SLS, no KCl)) 0.710%; (Table 5, 0% SLS) 0.012%; (Table 5, 1.5% SLS - 3.75% KCl) 0.011%; (Table 5, 1.5% SLS - 3.75 KCl - 10% HPbCD) 0.190%. Besides, the “Triclosan solubility, %” value (Table 5, 1.5% SLS - 3.75 KCl - 20% HPbCD) was 0.380%. The “triclosan solubility with increasing concentrations of hydroxypropyl-beta-cyclodextrin” value (no SLS, no KCl) is recorded as “increased in a dose-dependent manner”. Moreover, the “triclosan solubility in the presence of hydroxypropyl-beta-cyclodextrin along with SLS and KCl” value (with SLS and KCl) was “increased solubility”.
